In ChEMBL document CHEMBL4330139, “Synthetically modified methoxsalen for enhanced cytotoxicity in light and dark reactions” (Bioorg Med Chem Lett, 2019):

What was measured:
[1] = Dark toxicity against mouse PAM212 cells assessed as cell growth inhibition incubated for 30 mins under dark condition measured after 5 days by coulter counting method; format: cell-based
[2] = test system: PAM212; assay: Phototoxicity against mouse PAM212 cells assessed as cell growth inhibition preincubated for 30 mins followed by 1.28 J/cm2 UV light exposure and measured after 5 days by coulter counting method; format: functional, cell-based; details: PAM212, light or radiation study
[3] = Dark toxicity against mouse PAM212 cells assessed as cell growth inhibition incubated for 5 days under dark condition by coulter counting method; format: cell-based

| SMILES | IC50 at 30 min [1] [µM] | IC50 [2] [µM] | IC50 at 5 days [3] [µM] |
| --- | --- | --- | --- |
| CCN(C)/N=N/c1c2ccoc2c(OC)c2oc(=O)ccc12 | > 100 | > 70 | 10 |
| CCN(CC)/N=N/c1c2ccoc2c(OC)c2oc(=O)ccc12 | > 100 | > 100 | 6 |
| COc1c2occc2cc2ccc(=O)oc12 [METHOXSALEN] | > 100 | 0.1 | > 100 |
| COc1c2occc2c(NC(=O)c2ccc(N=[N+]=[N-])cc2)c2ccc(=O)oc12 | > 100 | 33 | > 300 |
| COc1c2occc2c(/N=N/N(C)C)c2ccc(=O)oc12 | > 100 | > 100 | 20 |
| CCCCN(C)/N=N/c1c2ccoc2c(OC)c2oc(=O)ccc12 | > 100 | 4 | 7 |
| COc1c2occc2c(NC(=O)NCCCl)c2ccc(=O)oc12 | > 100 | > 100 | > 300 |
| COc1c2occc2c(NC(=O)CCl)c2ccc(=O)oc12 | 50 | 40 | 4 |
